Molecules are shown by their SMILES.

Data set [1] has as its target T1, PDGFRa (Homo sapiens, UniProt P16234).
T1 construct: purchased Carna Biosciences
The data set is described as follows: Protein binding selectivity by change in fluorescence (fluorescence turn-on on binding). The protocol: More particularly, to determine whether compound 1 selectively binds to a kinase enzyme, various proteins (including a kinase enzyme) were used to check a change in fluorescence. In this experiment, a buffer (100 mM HEPES buffer, pH 7.4) was used as the solvent, and a kinase commercially available from Carna Biosciences was used as the kinase enzyme. Here, each kinase enzyme was stored at −80° C. together with a solvent (50 mM Tris-HCl, 150 mM NaCl, 0.1% CHAPS, 1 mM DTT, and 10% Glycerol, pH 7.5) kindly provided by the manufacturer. […] A 96-well fluorescence assay plate (commercially available from SPL Life Science) was used as a plate used upon measurement of fluorescence, and a VCITOR 3 multilabel counter (commercially available from Perkin Elmer-Wellesley) was used as a measuring machine. A 355 nm-thick filter was used to produce excitation wavelengths of the measuring machine, and a 535 nm-thick filter was used to produce emission wavelengths of the measuring machine. Stirring was performed at 37° C. for 24 hours at a rotary speed of 170 rpm using an NB-205Q model (commercially available from N-BIOTEK). Compound 1 was dissolved in a DMSO solution (1 mM, 10 mM, 50 mM, 100 mM, and 200 mM) to be used, and DMSO in every tube was adjusted to be substantially the same content (less than 1%) under the finally used solvent conditions. Mg^2+ and ATP were used at a content of 1 mM.
In the graph shown in FIG. 2, the horizontal axis represents kinds of proteins, and the vertical axis represents fluorescence intensities of the proteins. Each experimental value was basically an average value of three experiments conducted through the same course for preparing for experiments, a concentration of compound 1 used was 100 μM, and an amount of each protein was 0.2 μg/mL. The kinds of proteins indicated on the horizontal axis are as follows.
More particularly, Model WUV-L10 commercially available from WiseUV was used as a UV excitation device, and the solvent and experiment conditions used were substantially the same as in Example 3. Here, a fluorescence emission observed in the UV excitation device (UV excitation at 350 nm to 430 nm) was determined by taking an image.
More particularly, compound 1 (100 μM) and the kinase enzyme, Src or PDGFRa, were used at contents of 0.2 μg and 1 μg, respectively, and the solvent and experiment conditions used were substantially the same as in Example 3.
More particularly, the solvent and experiment conditions used were substantially the same as in Example 3. In the graph shown in FIG. 7, A represents a fluorescence intensity when compound 1 (100 μM) is used alone, B represents a fluorescence intensity when Mg (1 mM) is added to compound 1, C represents a fluorescence intensity when ATP (1 mM) is added to compound 1, and D represents a fluorescence intensity when compound 1 is treated with Mg (1 mM) and ATP (1 mM) at the same time.
More particularly, a concentration of the kinase enzyme was set to 0.2 μg/mL, fluorescence intensity according to the concentration of compound 1 was measured in the presence of Mg (1 mM) and ATP (1 mM), and the solvent conditions and other conditions were substantially the same as in Example 3.

For data set [2], the system named is 96 kinase enzymes. The data set is described as follows: KINOMEscan competition binding (DiscoveRX). The text has this: (§1) More particularly, to determine selectivities to various kinds of kinase enzymes, the samples were entrusted to DiscoveRX (U.S.A), which was able to determine the binding affinities to a total of 96 kinase enzymes, to perform KINOMEscan experiments. This company treated all kinds of information on the entrusted samples as confidential, and analyzed the sample with charge. Compound 1 was provided to the company, and the company performed the KINOMEscan experiments, and provided the results (DiscoveRX corp.)
(§2) KINOMEscan is an experiment in which compound 1 and a compound (a material strongly binding to kinase enzymes) competing for compound 1 are treated with a kinase enzyme at the same time to determine how many the competing compound binds to active sites of the kinase enzymes, compared with compound 1. In this experiment, an experimental value is expressed as a percentile value. In this case, a lower percentile value means that compound 1 more strongly bind to the kinase enzymes.

The target of data set [3] is T2, ABL1 (T315I) (Homo sapiens, UniProt P00519, T315I).
T2 construct: purchased DiscoveRX (contract KINOMEscan service)
Nature of the data set: KINOMEscan competition binding (DiscoveRX). The note with it: lower value means stronger binding.
Excerpt: as §1, §2

Data set [4] deals with T3, BRAF (Homo sapiens, UniProt P15056).
T3 construct: purchased DiscoveRX (contract KINOMEscan service)
Nature of the data set: KINOMEscan competition binding (DiscoveRX). The note with it: lower value means stronger binding.
Excerpt: as §1, §2

The target of data set [5] is T1, PDGFRa. The data set is described as follows: KINOMEscan competition binding (DiscoveRX). The conditions noted are these: lower value means stronger binding.
Excerpt: as §1, §2

Data set [6] concerns the target T4, RSK2 (Homo sapiens, UniProt P51812).
T4 construct: purchased DiscoveRX (contract KINOMEscan service)
The data set is described as follows: KINOMEscan competition binding (DiscoveRX). The conditions noted are these: lower value means stronger binding.
Excerpt: as §1, §2

In data set [7] the target is T5, TYK2 (Homo sapiens, UniProt P29597).
T5 construct: purchased DiscoveRX (contract KINOMEscan service)
Nature of the data set: KINOMEscan competition binding (DiscoveRX). The note with it: lower value means stronger binding.
Excerpt: as §1, §2

Data set [8] deals with mouse cutaneous melanoma cells (B16F10). The data set is described as follows: Cytotoxicity, cell counting kit-8 (CCK-8). Format: cell-based. The conditions noted are these: B16F10, 0 to 200 μM, incubated for an hour. The protocol:
The present inventors confirmed the cytotoxicity of compound 1 in mouse cutaneous melanoma cells (B16F10) using a cell counting kit-8 (CCK-8) method (Dojindo laboratories, Kumamoto, Japan).
More particularly, the B16F10 cells were incubated for 24 hours (at 37° C.) at a density of 5000 cells/well in a 96-well plate under a 5% CO2 atmosphere. The cells were treated with an increasing concentration of compound 1 (10 μM, 30 μM, 50 μM, 100 μM, and 200 μM) in a DMSO solvent, and then incubated for an hour. Thereafter, the cells were treated with 10 μL of a CCK-8 solution, and then incubated for 2 hours.
A general note: Formazan colour is commonly taken as a measure of viable cells.

For data set [9], the system named is CT-26 cancer cells. Nature of the data set: Emission wavelengths of fluorescence in cancer cells using an optical fiber. Format: cell-based, mouse. The note with it: CT-26 cells treated with compound 1 as in Example 12. As for the experimental part: More particularly, CT-26 cancer cells were treated with compound 1 in the same manner as performed in Example 12, and emission wavelengths of fluorescence were then determined using an optical fiber. The optical fiber was connected to a spectrofluorometer (FL1039, HORIBA), and ranges of excitation wavelengths and emission wavelengths are substantially the same as in Example 12. Then, the emission wavelengths of fluorescence were determined.

T1 sequence (P16234 24-1089): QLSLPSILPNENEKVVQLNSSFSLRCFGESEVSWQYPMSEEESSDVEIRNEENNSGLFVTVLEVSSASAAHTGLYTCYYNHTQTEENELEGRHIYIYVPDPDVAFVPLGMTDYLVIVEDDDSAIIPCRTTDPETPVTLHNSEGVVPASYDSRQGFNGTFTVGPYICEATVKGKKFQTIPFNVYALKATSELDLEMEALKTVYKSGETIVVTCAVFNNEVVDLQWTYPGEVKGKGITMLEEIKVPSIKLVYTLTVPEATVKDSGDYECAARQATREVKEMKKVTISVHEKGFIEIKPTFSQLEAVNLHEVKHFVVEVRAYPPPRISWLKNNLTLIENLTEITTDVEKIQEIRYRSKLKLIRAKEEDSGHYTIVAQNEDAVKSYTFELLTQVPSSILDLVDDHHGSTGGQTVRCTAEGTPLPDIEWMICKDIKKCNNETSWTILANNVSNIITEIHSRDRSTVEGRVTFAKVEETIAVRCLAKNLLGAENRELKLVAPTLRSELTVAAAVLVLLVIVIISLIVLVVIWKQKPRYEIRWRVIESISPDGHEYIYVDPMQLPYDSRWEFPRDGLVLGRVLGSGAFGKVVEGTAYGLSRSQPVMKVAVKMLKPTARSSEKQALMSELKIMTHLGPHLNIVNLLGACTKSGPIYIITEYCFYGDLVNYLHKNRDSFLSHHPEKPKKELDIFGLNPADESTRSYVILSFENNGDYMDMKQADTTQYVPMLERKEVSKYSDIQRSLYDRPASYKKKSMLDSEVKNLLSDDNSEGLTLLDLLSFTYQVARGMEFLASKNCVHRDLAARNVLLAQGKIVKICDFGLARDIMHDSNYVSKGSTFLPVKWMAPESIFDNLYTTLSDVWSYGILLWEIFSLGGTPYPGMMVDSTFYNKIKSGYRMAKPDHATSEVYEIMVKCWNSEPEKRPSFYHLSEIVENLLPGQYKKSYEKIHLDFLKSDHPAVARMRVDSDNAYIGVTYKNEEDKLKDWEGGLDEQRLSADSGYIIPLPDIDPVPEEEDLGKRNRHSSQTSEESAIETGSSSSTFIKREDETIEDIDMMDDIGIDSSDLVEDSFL
T5 sequence (P29597 whole entry): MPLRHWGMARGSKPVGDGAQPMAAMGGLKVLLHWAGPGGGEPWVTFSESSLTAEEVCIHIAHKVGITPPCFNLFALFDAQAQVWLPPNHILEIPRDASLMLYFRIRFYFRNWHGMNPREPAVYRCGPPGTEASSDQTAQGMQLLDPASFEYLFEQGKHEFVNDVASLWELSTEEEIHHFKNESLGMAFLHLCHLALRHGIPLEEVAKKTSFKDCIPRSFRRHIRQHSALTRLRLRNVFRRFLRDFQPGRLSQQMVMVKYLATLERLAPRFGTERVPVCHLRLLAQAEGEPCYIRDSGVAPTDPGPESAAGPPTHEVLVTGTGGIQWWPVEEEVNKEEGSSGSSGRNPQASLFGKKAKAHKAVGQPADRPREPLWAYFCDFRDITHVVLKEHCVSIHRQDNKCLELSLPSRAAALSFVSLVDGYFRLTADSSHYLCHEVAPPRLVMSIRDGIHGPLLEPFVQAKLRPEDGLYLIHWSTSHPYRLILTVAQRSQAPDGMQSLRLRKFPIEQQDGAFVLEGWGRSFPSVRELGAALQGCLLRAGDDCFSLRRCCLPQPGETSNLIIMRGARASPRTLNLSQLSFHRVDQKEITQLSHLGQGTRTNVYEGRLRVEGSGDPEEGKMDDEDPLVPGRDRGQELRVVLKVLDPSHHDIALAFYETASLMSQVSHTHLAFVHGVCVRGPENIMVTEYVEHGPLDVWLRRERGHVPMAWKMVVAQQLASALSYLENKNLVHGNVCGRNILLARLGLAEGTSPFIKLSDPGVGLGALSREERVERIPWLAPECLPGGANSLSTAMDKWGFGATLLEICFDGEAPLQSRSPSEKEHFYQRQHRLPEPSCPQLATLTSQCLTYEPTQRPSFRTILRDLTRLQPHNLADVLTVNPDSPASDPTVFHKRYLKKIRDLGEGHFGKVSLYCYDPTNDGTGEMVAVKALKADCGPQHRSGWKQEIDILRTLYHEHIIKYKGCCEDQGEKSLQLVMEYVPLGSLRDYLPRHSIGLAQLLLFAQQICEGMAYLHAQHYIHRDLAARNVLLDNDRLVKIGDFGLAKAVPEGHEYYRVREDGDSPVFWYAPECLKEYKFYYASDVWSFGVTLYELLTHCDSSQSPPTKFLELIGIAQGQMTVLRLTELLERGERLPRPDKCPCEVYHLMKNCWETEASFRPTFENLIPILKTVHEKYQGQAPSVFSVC
T4 sequence (P51812 whole entry): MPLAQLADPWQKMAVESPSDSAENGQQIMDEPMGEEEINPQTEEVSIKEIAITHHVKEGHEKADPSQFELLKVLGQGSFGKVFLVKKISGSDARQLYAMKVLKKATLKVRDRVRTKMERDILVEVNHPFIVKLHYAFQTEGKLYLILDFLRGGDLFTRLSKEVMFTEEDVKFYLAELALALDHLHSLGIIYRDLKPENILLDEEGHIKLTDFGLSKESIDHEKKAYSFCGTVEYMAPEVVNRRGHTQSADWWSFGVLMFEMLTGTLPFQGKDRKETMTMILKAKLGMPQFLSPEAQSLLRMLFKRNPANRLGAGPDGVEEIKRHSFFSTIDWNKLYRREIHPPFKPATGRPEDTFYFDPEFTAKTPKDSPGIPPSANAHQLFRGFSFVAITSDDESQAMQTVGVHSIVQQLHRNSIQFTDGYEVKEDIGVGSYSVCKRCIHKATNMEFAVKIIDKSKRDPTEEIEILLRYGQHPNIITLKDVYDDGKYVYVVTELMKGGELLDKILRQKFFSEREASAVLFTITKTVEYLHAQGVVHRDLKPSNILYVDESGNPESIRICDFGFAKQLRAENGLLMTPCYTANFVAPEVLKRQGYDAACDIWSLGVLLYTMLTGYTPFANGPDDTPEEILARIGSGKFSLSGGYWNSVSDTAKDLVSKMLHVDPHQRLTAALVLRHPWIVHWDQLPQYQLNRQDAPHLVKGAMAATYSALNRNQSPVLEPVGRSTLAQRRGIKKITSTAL
T3 sequence (P15056 whole entry): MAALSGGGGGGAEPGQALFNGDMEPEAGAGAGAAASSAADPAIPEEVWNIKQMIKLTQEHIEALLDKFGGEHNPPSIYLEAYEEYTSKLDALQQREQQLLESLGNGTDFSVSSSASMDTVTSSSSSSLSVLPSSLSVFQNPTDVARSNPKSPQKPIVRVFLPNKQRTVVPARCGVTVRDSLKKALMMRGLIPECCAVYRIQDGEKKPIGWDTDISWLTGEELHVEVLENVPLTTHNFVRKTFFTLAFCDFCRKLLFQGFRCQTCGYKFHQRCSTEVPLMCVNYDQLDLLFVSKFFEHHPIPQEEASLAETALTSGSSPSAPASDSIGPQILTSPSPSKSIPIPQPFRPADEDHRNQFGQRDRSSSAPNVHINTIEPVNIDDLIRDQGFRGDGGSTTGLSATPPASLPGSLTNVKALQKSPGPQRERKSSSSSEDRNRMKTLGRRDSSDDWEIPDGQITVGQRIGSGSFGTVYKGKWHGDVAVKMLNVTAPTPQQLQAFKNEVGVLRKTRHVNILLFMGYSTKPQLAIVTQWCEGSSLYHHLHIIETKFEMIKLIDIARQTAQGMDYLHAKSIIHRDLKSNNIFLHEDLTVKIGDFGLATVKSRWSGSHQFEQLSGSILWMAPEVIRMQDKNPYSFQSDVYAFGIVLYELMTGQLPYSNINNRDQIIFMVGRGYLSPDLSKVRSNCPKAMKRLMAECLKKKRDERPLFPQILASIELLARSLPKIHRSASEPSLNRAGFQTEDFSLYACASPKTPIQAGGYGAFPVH

Turning to `CN(C)c1ccc2cc(C=O)c(O)cc2c1` [compound 1, 6-(dimethylamino)-3-hydroxyl-2-naphthaldehyde], in [1] (PDGFRa with ATP and Mg, 37° C. 24 hours, UV 350 nm to 430 nm, compared with compound 1 alone), the “fluorescence under UV excitation (image)” value is reported as “strong fluorescence”. Further, the fluorescence intensity entry in [1] (compound 1 100 μM, protein 0.2 μg/mL, with Mg and ATP (1 mM), 37° C. 24 hours) is “highest fluorescence intensity”. The “fluorescence intensity, effect of cofactors” value in [1] (compound 1 100 μM, case D: Mg (1 mM) and ATP (1 mM) together) is reported as “highest increase in fluorescence intensity”. Further, the “fluorescence signal intensity according to concentration of kinase enzyme” value in [1] (compound 1 100 μM, enzyme 0.2 μg and 1 μg) was “stronger fluorescence signal intensity at higher concentrations”. Also, the “increase in fluorescence intensity” value in data set [1] (compound 1 at approximately 50 μM, kinase 0.2 μg/mL, Mg 1 mM, ATP 1 mM) is “approximately 50%”. The “number of kinase enzymes bound, of a total of 96” value in data set [2] is listed as “at least 50”. In addition, the KINOMEscan percentile value result in data set [3], in [4], in data set [5], in data set [6] and in data set [7] was “low percentile value” throughout. Besides, the cell viability result in data set [8] is recorded as “more than 90%”. Further, in data set [9], the “emission wavelength of fluorescence in cells” value was “around 550 nm”.
